Among the data in the NIST ThermoML archive (doi:10.1016/j.fluid.2007.06.010) are refractive index values, retold here.

SMILES strings stand for the structures. Numbers after ± are expanded uncertainties.

This data set can be described thus: refractive index (Na D-line) (dimensionless). Particulars: 298.15 K; 101.33 kPa; Liquid; Standard Abbe refractometry.
For `CC(C)CC(C)(C)C` [2,2,4-trimethylpentane], the refractive index is given as 1.389 ± 0.0007. The value for `CCOC(C)(C)C` [2-ethoxy-2-methylpropane] was 1.373 ± 0.0007; that for `c1ccsc1` [thiophene] was 1.5255 ± 0.0007; that for `Cc1ccccc1` [toluene] was 1.494 ± 0.0007.
